Tests used:
NF-κB [1] = test: Firefly luciferase NF-κB reporter assay in TNF-α-stimulated HEK293 cells; assay type: cell-based; details: for inhibition of TNF-α-induced NF-κB activation (luciferase reporter), in words: 293 NF-κB luciferase reporter cells, 10 ng/ml TNF-α, compound 12909780 at 100 μM
Method: This model was used to screen a subset of the drug-like ZINC 8.0 database set (˜900,000 compounds) (Irwin et al., 2005). We were able to identify 161 hits that matched at least 6 features out of eight of the pharmacophore model. […] Two compounds termed NBDA-1 (Zinc-13) and NBDA-2 (Zinc-5), successfully passed these filters (See FIG. 4) and were purchased for biological testing. The compounds were then tested for ability to inhibit TNF-alpha-mediated induction of NF-κB activity in a 293 cells stably modified with a NF-κB luciferase reporter.
The activation of NF-κB was then quantitated by measuring the level of luciferase activity. […] Also, protein extracts were prepared from the same cells and the level of phospho-IkB determined, a marker of IKK activity.
To test if the small molecules identified by the in silico screen inhibit NF-κB activation, a HEK293 cell line stably expressing a luciferase reporter driven by a synthetic, NF-κB-dependent promoter was utilized. To induce NF-κB activation, cells were treated with 10 ng/ml of TNF-α and harvested three hours post-treatment for analysis of luciferase activity. […] To determine if compound 12909780 inhibited NF-κB in a dose dependent manner, concentrations were tested at 0, 6.25, 25, 50 and 100 μM.
HEK293 cells stably transfected with luciferase reporter plasmid driven by NF-κB were seeded in 96-well plate in triplicate and pretreated with DMSO or varying small molecules at indicated concentration for 30 min, followed by the stimulation of 10 ng/ml of TNFα for 3 hr. Cell were washed with PBS once and harvested in passive lysis buffer. Luciferase assay (Promega) was performed using a luminometer according to the manufacturer's instructions.

HEK293 cells = test: MTT cell viability assay; assay type: cell-based
Method: To identify NBD mimetics with higher biological activity than compound 12909780 or the NBD peptide, we next screened the ZINC 10.0 database (approximately 3.5 million compounds) in silico for structurally similar compounds (24).
Cell viability was calculated by normalizing values to untreated control.

p-IκBα = test: Western blot of IκBα phosphorylation after TNF-α; assay type: cell-based; details: 10 ng/ml TNF-α, 0, 5 and 10 min; 100 μM compound
Method: (§1) To confirm that the NBD mimetics reduce IKK activity, the extent of phosphorylation of the IKK target, IκBα, in response to 10 ng/ml of TNF-α was determined by Western blot at 0, 5 and 10 min after TNF-α stimulation. […] To determine if the mimetics also reduce NF-κB DNA binding activity, electrophoretic mobility shift assay (EMSA) was conducted both in vivo and in vitro.
HEK293 cells grown in a 6-well plate at 1×10^6 cells/well were left untreated or treated with 100 μM of ZINC12909780 or ZINC3369392 for 30 min, followed by 10 ng/ml of TNFα for 0, 5 and 10 min. Cells were then harvested for western blot. Cell lysate was prepared in RIPA buffer (20 mM Tris-HCl (pH 7.5), 150 mM NaCl, 1 mM Na^2EDTA, 1 mM EGTA, 1% NP-40, 1% sodium deoxycholate, 2.5 mM sodium pyrophosphate, 1 mM beta-glycerophosphate, 1 mM Na3VO4, 1 μg/ml leupeptin, 1× protease inhibitor cocktails (sigma) and 1× Halt phosphatase inhibitor cocktail (Thermo)). 30 ug of protein was resolved by MINI-PROTEAN TGX 4-15% SDS-PAGE. Blots were blocked in 5% non-fat milk. Primary antibodies were incubated at 4° C. overnight and secondary antibodies were incubated at room temperature for 1 hour. Anti-p-IκBα (1:1000 CST) and anti-IκBα (1:2000 CST) were used to assess NF-κB activation. Anti-GAPDH (1:5000 CST) was used as a loading control.

NF-κB [2] = test: EMSA of NF-κB DNA binding in C2C12 cells; assay type: cell-based, mouse; details: 200 μM
Method: as §1
(§2) Cytoplasmic and nuclear fractions were extracted using the NE-PER nuclear and cytoplasmic extraction reagents (ThermoFisher) according to the manufacturer's instructions. The gel shift assay was performed by following the previously described method (41). In brief, 5 μg of nuclear extract was incubated with gel shift binding buffer and an α-^32P-deoxycytodine triphosphate-radiolabeled NF-κB probe for 20 min at room temperature (MP Biomedicals). The oligonucleotide sequences are as follows: NF-κB template, 5′-[…]-3′; NF-κB annealing, 5′-[…]-3′. The reaction product was separated on a 6% non-denaturing polyacrylamide gel.

NF-κB [3] = test: EMSA of NF-κB DNA binding in skeletal muscle of mdx mice after acute treatment; assay type: in vivo, mouse; details: single ip injection at 10 mg/kg, 1 and 2 hours post-treatment
Method: We also tested the compounds for their ability to inhibit NF-κB activity acutely in a murine model of disease. For these experiments, a mouse model of Duchenne muscular dystrophy, which has elevated NF-κB activity in muscle, was treated with Zinc-13 (NBDA-1) and Zinc-5 (NBDA-2) and the level of NF-κB activity determined by gel shift analysis at 1 and 2 hours post-treatment.
as §1, §2

[4] = biological target: T1, IKK complex (IKKß, IKKα and NEMO) (Homo sapiens, UniProt Q9Y6K9); test: Co-immunoprecipitation of NEMO with IKKß in 293 cells; assay type: cell-based; details: Zinc-5 at 4 hours, Zinc-13 at 1 hour, NBD peptide at 4 hours
T1 construct: analyzed by Western blot for the level of co-precipitated NEMO; endogenous in cells; host or cells: 293 (HEK293) cells
T1 sequence (Q9Y6K9 whole entry, one chain of several): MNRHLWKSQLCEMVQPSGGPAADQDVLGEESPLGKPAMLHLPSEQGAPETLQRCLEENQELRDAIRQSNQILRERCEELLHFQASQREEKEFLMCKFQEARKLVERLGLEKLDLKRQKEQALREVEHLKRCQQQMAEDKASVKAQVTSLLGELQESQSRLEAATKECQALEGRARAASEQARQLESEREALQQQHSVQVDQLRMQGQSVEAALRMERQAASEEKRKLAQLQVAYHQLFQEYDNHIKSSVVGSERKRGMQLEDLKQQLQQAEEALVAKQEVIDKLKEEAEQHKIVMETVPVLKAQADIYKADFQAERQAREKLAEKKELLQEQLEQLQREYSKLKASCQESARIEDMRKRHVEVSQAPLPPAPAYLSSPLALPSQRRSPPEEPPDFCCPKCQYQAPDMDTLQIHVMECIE
From the text: FIG. 8 is a bar graph showing the inhibition of TNFα by NBDA-1 (Zinc-13). […] In addition, we have examined the ability of the compounds to disrupt the IKK complex, comprised of IKKß, IKKα and NEMO.
A non-functional, related compound Zinc-7 had no effect.

mdx mice = test: Chronic treatment of mdx mice (Duchenne muscular dystrophy model); assay type: in vivo, mouse; details: chronic treatment with the ZINC compounds
From the text: Mdx mice develop normally at birth, and then undergo a massive myonecrosis starting at three weeks. Treatment of mdx mice with IKK/NF-kB inhibitors effectively reduces inflammation, block necrosis and increase muscle regeneration. Mdx mice were chronically treated with vehicle, SR12343, SR12460 or 8K-NBD starting from day 21, 3 times/week for 4 weeks. […] To determine if SR12343 and SR12460 improve muscle pathology, tibialis anterior (TA) muscle was stained with hematoxylin and eosin (H&E) to assess inflammatory infiltration, necrosis, central nucleation and fibrosis. […] Fiber size in centrally nucleated and non-centrally nucleated myofibers was also smaller in mice treated with SR12343 and 8K-NBD, indicating active reconstruction of myofiber during the regenerative phase.
To determine muscle strength post-treatment, grip strength test on forelimbs was performed 2 weeks and 4 weeks post-treatment.
HEK293 cells were grown in Dulbecco's Modification of Eagles Medium (with 4.5 g/L glucose and L-glutamine), supplemented with 10% fetal bovine serum, penicillin and streptomycin. Raw264.7 cells were cultured in RPMI-1640 media containing 10% heat-inactivated fetal bovine serum, penicillin and streptomycin. C57BL/10ScSn-Dmd^mdx/J and female C57BL/6 mice were purchased from the Jackson Laboratory. Mice were housed in the animal facilities of Scripps Fla. under constant temperature and humidity. Animal protocols used in this study were approved by Scripps Fla. Institutional Animal Care and Use Committees. Three week-old sex-matched mdx mice were dosed with SR12343 (30 mg/kg), […] (30 mg/kg), 8K-NBD peptide (10 mg/kg) or vehicle by intraperitoneal (i.p.) injection 3 times per week for 4 weeks. Mice were sacrificed at 7 weeks of age by carbon dioxide inhalation and tibialis anterior was collected for histological analysis.
Seven week-old treated or untreated mdx mice were measured for forelimb grip strength using a digital grip strength meter paired with a metal grid (Bioseb). Mice were allowed to grip the metal grid tightly and readings were obtained by gently pulling the tail backward until release. Five sequential measurements were performed and the average force was calculated.
Tissues fixed in 10% neutral buffered formalin (NBF) overnight were imbedded in paraffin. Tissue was sectioned at […] using a microtome. H&E staining was conducted following a standard protocol (REF).

[5] = Degradation in the presence of serum; assay type: in vitro ADME; details: data not shown

O=C(COC(=O)Cc1ccccc1F)Nc1ccc(Cl)cn1 [ZINC5, 2-(2-fluorophenyl)acetic-acid-[2-[(5-chloro-2-pyridyl)amino]-2-keto-ethyl]-ester]
dose-dependent inhibition of TNF-α-induced NF-κB activation, in words (NF-κB [1]; 0, 6.25, 25, 50 and 100 μM): greater extent of inhibitory effect compared to compound 12909780 | inhibition of TNF-α-induced NF-κB activation (luciferase reporter), in words (NF-κB [1]; listed as Zinc5): lowered NF-κB activity robustly | inhibition of TNF-α-induced NF-κB activation (luciferase reporter), in words (NF-κB [1]; listed as Zinc-5): able to inhibit TNF-alpha mediated activation of NF-κB, as or more efficiently as the NBD peptide | cell death / toxicity (MTT assay) (HEK293 cells; HEK293, 24 hours): less than 10% | cell toxicity, in words (HEK293 cells; at 50 and 100 μM): no cell toxicity observed | level of phospho-IκBα / phosphorylation of IkB (p-IκBα): reduced the level of p-IκBα dramatically | TNFα-induced NF-κB DNA binding activity (EMSA) (NF-κB [2]): significantly decreased TNFα-induced NF-κB DNA binding activity | NF-κB DNA binding activity in quadriceps of mdx mice (NF-κB [3]; 10 mg/kg): inhibited NF-κB DNA binding activity in quadriceps | NF-κB DNA binding activity in quadriceps of mdx mice (NF-κB [3]; listed as Zinc-5, 10 mg/kg): reduced NF-κB DNA binding activity in the skeletal muscle (quadricep) | level of NEMO co-immunoprecipitated with IKKß [4]: reduced the level of co-immunoprecipitated NEMO | therapeutic benefit of chronic treatment of mdx mice (mdx mice): showed no therapeutic benefit | degradation in the presence of serum [5]: rapid degradation in the presence of serum

Reference: patent publication US10758522B2, “Small molecule analogs of the nemo binding peptide” (THE SCRIPPS RESEARCH INSTITUTE, priority 2015, dated 2020)
